Test results taken from US20260199365A1, “BIS-SULFONAMIDE SHIP1 ACTIVATORS” (The Research Foundation for the State University of New York, priority 2022, published 2026).

Tests used:
[1] = tested on: microglia; assay: Phagolysosomal degradation of synaptosomes and dead neurons by microglia; format: cell-based; details: SHIP1-dependent manner
Source text: (§1) New small molecule SHIP1 activators are needed to explore the effects of these molecules in IBD and AD model systems to define the role of SHIP in these disorders. […] The K306 structure is related to a series of sulfonamide based endothelial lipase inhibitors. As the molecule came from screening, no information was available about structure activity relationships in this SHIP1 activator. Sulfonamides have been used previously as phosphate mimics in the development of phosphatase inhibitors however, so it is possible that one of the sulfonamides in the K306 structure is mimicking the one of the phosphates on PI(3,4)P2, the endogenous ligand for allosteric activation of SHIP1. […] Given that K306 provides a new class of SHIP1 activators with a unique binding site that could have implications in Crohn's disease and Alzheimer's disease, synthetic studies were initiated on the structure.

[2] = tested on: IL-6 production in BV-2 cells; assay: ELISA quantitation of IL-6 production in BV-2 cells after stimulation with LPS; format: cell-based, murine; details: 1 h pretreatment with SHIP1 activator 10 μM, then LPS
Description: FIG. 3 presents an ELISA quantitation of IL-6 production in BV-2 cells after stimulation with LPS. BV-2 cells were plated and treated for 1 h with vehicle (Veh, 0.25% DMSO) or SHIP1 activator (10 μM in Veh) prior to addition of LPS (100 ng/ml). Unstimulated BV2 cells treated with Veh are shown as an additional control to assess LPS induction of IL-6. (A) Evaluation of 1, 26, 29 and 53. (B) In a separate experiment, 70, and 71 were evaluated under similar conditions. Bars indicate Mean G SEM; statistical tests: two-way ANOVA with Tukey correction, **** p<0.0001, ** p<0.01.
Given this experience, some of the new activators were evaluated in a cell-based setting. Using the immortalized BV-2 cell line, which is derived from murine microglia and retains many microglial morphological and functional characteristics of microglia, an assay for the anti-inflammatory effects of these activators was developed. This assay involved treatment of the cells with lipopolysaccharides (LPS) to induce IL-6 production which can then be quantified with an ELISA.
Cell culture: The BV2 cell line was obtained from the ATCC (American Type Culture Collection). The ATCC and performs genetic validation on deposited cell lines. For the inflammatory cytokines production studies, BV2 cells were cultured in DMEM/F12 (Corning) 10% HI FBS at 37° C. and 5% CO2 in a humidified incubator and split 1:6 every 3 days with Cellstripper™ (Corning). Cells were kept at 37° C. and 5% CO2 in a humidified incubator.
ELISA measurements: Parental (scrambled guide control) BV2 cells were seeded at 5×10^5/mL, […] in 48 well plate. Cell were treated with […] small molecule or vehicle control (0.5% DMSO) and incubated for 1 h before addition of stimuli. LPS (10 ng/ml, E. coli O111: B4, Sigma) was added to the cells and incubated for 6 h to detect IL-6 production. Supernatants were spun down at 400×g for 5 minutes to remove cell debris and froze at −20° C. for ELISAs. IL-6 levels were quantified from cellular supernatants with ELISA MAX™ Standard Set Mouse IL-6 kit (Biolegend), following manufacturer's recommendations. We detected absorbance at 450 nm and removed 570 nm background absorbance, with a plate reader (Synergy 2, BioTek). All experiments were repeated three times and each value was reported as mean±SEM from biological replicates in the same assay. All statistical analysis were performed using GraphPad Prism (version 9.2). Two-way ANOVA was used to analyze all data with two independent variables as time and treatment or concentration and treatment, data is reported as Mean+/−SEM.

[3] = tested on: C2-less SHIP1 protein; assay: Agonism with SHIP1 protein lacking the C2 domain; format: biochemical; details: C2 domain of the protein deleted
Source text: as §1

[4] = Half-life in vivo; details: mice
Source text: This is believed to be due to rapid oxidation of the sulfur functional groups in K306 by cytochrome P450 enzymes which are prevalent in mice. […] The thiophene is still a concern, however, as this heterocycle is known to undergo oxidation by CYP enzymes and can lead to toxic metabolites.

Compound: Cc1sc(S(=O)(=O)N2CCSCC2)cc1NC(=O)CNS(=O)(=O)c1ccc(F)cc1 [Compound K306, 2-(4-Fluorobenzenesulfonamido)-N-[2-methyl-5-(thiomorpholine-4-sulfonyl)thiophen-3-yl]acetamide]
- Phagolysosomal degradation of synaptosomes and dead neurons by microglia [1]: enhance phagolysosomal degradation
- IL-6 production induced by LPS [2]: significantly diminished
- Agonism with C2-less SHIP1 protein [3]: maintained agonism
- Half-life in vivo [4]: short-half life in vivo
